Reference: US20240270701A1, “BETA ADRENERGIC AGONIST AND METHODS OF USING THE SAME” (Curasen Therapeutics, Inc., priority 2021, published 2024)
Read-outs that look alike come from different tables or passages of the source.

Assays:
B1-AR = target: T1, B1-AR (Homo sapiens, UniProt P08588); assay: cAMP Gs dynamic HTRF assay, cells expressing beta-adrenergic receptor (CHO-K1), B1-AR; format: cell-based; conditions: for EC50: cAMP HTRF, read-out: pEC50 [B1-AR] (converted); for Emax: relative to full agonist isoproterenol, read-out: Emax (% iso) (%) [B1-AR]
T1 construct: expressed in transfected cells; host or cells: CHO-K1
T1 sequence (P08588 whole entry, species assumed): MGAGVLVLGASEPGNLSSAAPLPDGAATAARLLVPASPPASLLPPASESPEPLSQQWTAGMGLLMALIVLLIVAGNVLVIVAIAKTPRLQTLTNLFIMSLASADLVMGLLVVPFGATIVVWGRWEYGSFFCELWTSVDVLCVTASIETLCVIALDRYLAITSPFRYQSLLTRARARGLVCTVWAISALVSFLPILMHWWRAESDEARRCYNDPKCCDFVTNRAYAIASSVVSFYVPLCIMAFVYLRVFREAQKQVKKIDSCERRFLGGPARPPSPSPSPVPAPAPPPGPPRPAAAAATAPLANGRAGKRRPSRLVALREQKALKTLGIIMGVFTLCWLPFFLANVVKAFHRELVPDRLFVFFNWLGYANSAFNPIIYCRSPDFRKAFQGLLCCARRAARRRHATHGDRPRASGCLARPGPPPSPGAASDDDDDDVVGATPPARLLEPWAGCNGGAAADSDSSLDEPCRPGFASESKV
Description: (§1) cAMP homogeneous time-resolved fluorescence (HTRF): experimental methods. Compound efficacy is determined using the cAMP Gs dynamic HTRF assay (Cisbio, catalog #62AM4PEC) largely following the manufacturer's instructions, also detailed below.
(§2) Standard serial dilution curves are 10-point, 5-fold dilutions starting from a highest concentration of 10 μM. Controls present on every assay plate are 0.1% DMSO (vehicle control), 1 μM isoproterenol (full beta-adrenergic agonist control) and […] xamoterol (partial beta-adrenergic agonist control). […] Assay plates are centrifuged at 500×g for 10 seconds. Compounds and IBMX are prepared at 2× final dose to compensate for addition of cells.
(§3) Cell preparation: 1× stimulation buffer, washing PBS (Dulbecco's phosphate-buffered saline, − Mg − Ca; Caisson Labs, catalog #PBL01), assay PBS (Dulbecco's phosphate-buffered saline, + Mg, + Ca; Caisson Labs, catalog #PBL02) and Versene (0.02% EDTA disodium salt solution in PBS without calcium or magnesium; Caisson Labs, catalog #EDL01) are pre-warmed to 37° C. Cells expressing beta-adrenergic receptor were washed in washing PBS to remove growth medium and then released from the surface by incubating with Versene for 5-10 minutes at 37° C. Cells are harvested using assay PBS, counted manually by hemocytometer or by an automated cell counter, pelleted by centrifugation (200×g, 5 minutes) and resuspended in 37° C. 1× stimulation buffer to a final density of 1.5×10^6 cells/mL. 5 μL of the suspended cell solution (7500 cell total) are added to all wells of the 384 well assay plate, the assay plate was covered with an Axygen® plate seal (Corning PCR-SP) and incubated in a humidified 37° C. environment supplemented with 5% CO2 for 30 minutes.
(§4) HTRF reagent addition, reading and data analysis: After 30 minutes of cell stimulation with test compound, the assay plates are centrifuged at 500×g for 10 seconds, and incubation was stopped with the addition of 5 μL cAMP-D2 acceptor, diluted 1:21 in detection and lysis buffer 2 (Cisbio 62CL2FDF) was added to all cells. Subsequently, 5 μL Anti-cAMP-Eu Donor, diluted 1:21 in detection and lysis buffer 2, was added to cells. Plates were sealed and reactions gently ‘vortexed’ at 900 rpm on a Heidolph Titramax 1000 for at least 30 minutes at room temperature. Plates are centrifuged again at 500×g for 10 seconds, and HTRF was measured using a Tecan Spark plate reader at 50 flashes per well. […] Potency estimates (EC50 and pEC50) are derived from the four-parameter nonlinear regression of the concentration-effect curve and an estimate of relative efficacy is determined by comparing the magnitude of the test compound HTRF signal window (min−max dose) with the signal window of the full agonist control, isoproterenol.

B2-AR = target: T2, B2-AR (Homo sapiens, UniProt P07550); assay: cAMP Gs dynamic HTRF assay, cells expressing beta-adrenergic receptor (CHO-K1), B2-AR; format: cell-based; conditions: for EC50: cAMP HTRF, read-out: pEC50 [B2-AR] (converted); for Emax: relative to full agonist isoproterenol, read-out: Emax (% iso) (%) [B2-AR]
T2 construct: expressed in transfected cells; host or cells: CHO-K1
T2 sequence (P07550 whole entry, species assumed): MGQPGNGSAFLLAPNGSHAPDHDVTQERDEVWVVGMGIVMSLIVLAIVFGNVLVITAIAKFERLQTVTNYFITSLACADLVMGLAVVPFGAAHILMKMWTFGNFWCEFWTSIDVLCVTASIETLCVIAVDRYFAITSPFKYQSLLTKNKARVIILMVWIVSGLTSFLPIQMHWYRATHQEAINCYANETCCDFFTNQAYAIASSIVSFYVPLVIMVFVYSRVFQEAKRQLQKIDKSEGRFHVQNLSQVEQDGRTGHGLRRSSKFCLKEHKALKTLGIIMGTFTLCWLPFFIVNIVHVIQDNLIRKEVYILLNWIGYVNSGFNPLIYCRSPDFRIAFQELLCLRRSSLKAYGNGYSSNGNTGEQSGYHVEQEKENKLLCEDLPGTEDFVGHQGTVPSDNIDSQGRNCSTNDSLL
Description: as §1, §2, §3, §4

| Structure (SMILES) | EC50 (B1-AR) [nM] | Emax (B1-AR) [%] | EC50 (B2-AR; CHO-K1 cells) [nM] | Emax (B2-AR; CHO-K1 cells) [%] | Emax (B2-AR; CHO-K1, CHO-K1 cells) [%] |
| --- | --- | --- | --- | --- | --- |
| CC(C)(NC[C@H](O)c1cc(C#N)cc2[nH]ncc12)C1CC1 [I-1] | 100 to 1000 | > 90 | 10 to 100 | > 90 |  |
| C[C@H](NC[C@H](O)c1cccc2c1C(F)(F)C(=O)N2)C(C)(C)C [I-2] | > 1000 | 50 to 70 | 10 to 100 | > 90 |  |
| C[C@H](NC[C@H](O)c1ccc(Cl)c2[nH]ncc12)C(C)(C)C [I-3] | 100 to 1000 | 50 to 70 | < 10 |  | 70 to 90 |
| CC(C)(C)C(C)(C)NC[C@H](O)c1cc(C#N)cc2[nH]ncc12 [I-4] | > 1000 | < 50 | 100 to 1000 |  | > 90 |
| C[C@H](NC[C@H](O)c1cc(C#N)cc2[nH]ncc12)C(C)(C)C [I-5] | > 1000 | 50 to 70 | 100 to 1000 |  | 70 to 90 |
| C[C@H](NC[C@H](O)c1cccc2[nH]ncc12)C(C)(C)C [I-6] | 100 to 1000 | 70 to 90 | < 10 |  | > 90 |
| CC(C)(C)C(C)(C)NC[C@H](O)c1cccc2[nH]ncc12 [I-7] | 100 to 1000 | > 90 | < 10 |  | > 90 |
| CC(C)(C)C(C)(C)NC[C@H](O)c1ccc(F)c2[nH]ncc12 [I-8] | > 1000 | 70 to 90 | < 10 | > 90 |  |
| C[C@@H](NC[C@H](O)c1cccc2[nH]ncc12)C(C)(C)C [I-9] | 10 to 100 | > 90 | < 10 |  | > 90 |
| C[C@@H](NC[C@H](O)c1ccc(F)c2[nH]ncc12)C1CC1 [I-10] | < 10 | 70 to 90 | < 10 |  | > 90 |
| C[C@H](NC[C@H](O)c1cccc2[nH]ncc12)C1CC1 [I-11] | < 10 | > 90 | < 10 |  | > 90 |
| CC(C)(NC[C@H](O)c1cccc2[nH]ncc12)C1CC1 [I-12] | < 10 | > 90 | < 10 | > 90 |  |
| C[C@@H](NC[C@H](O)c1cccc2[nH]ncc12)C1CC1 [I-13] | < 10 | > 90 | < 10 |  | > 90 |
| C[C@H](NC[C@H](O)c1ccc(F)c2[nH]ncc12)C(C)(C)C [I-14] | 100 to 1000 | 70 to 90 | < 10 |  | 50 to 70 |
| COc1ccc(C[C@@H](C)NC[C@H](O)c2cc(F)cc3[nH]ncc23)cc1 [I-15] | < 10 | > 90 | < 10 | > 90 |  |
| C[C@@H](NC[C@H](O)c1ccc(F)c2[nH]ncc12)C(C)(C)C [I-16] | 10 to 100 | > 90 | < 10 |  | > 90 |
| COc1ccc(C[C@@H](C)NC[C@H](O)c2ccc(F)c3[nH]ncc23)cc1 [I-17] | < 10 | > 90 | < 10 | > 90 |  |
| COc1ccc(C[C@@H](C)NC[C@H](O)c2cccc3[nH]nc(F)c23)cc1 [I-18] | < 10 | > 90 | < 10 | > 90 |  |
| CC(C)(NC[C@H](O)c1cc(F)cc2[nH]ncc12)C1CC1 [I-19] | < 10 | > 90 | < 10 |  | > 90 |
| CC(C)(NC[C@H](O)c1cccc2[nH]nc(F)c12)C1CC1 [I-20] | < 10 | > 90 | < 10 |  | > 90 |
| CC(C)(NC[C@H](O)c1ccc(F)c2[nH]ncc12)C1CC1 [I-21] | < 10 | > 90 | < 10 | > 90 |  |
| CC(C)C(C)(C)NC[C@H](O)c1ccc(F)c2[nH]ncc12 [I-22] | 10 to 100 | > 90 | < 10 | > 90 |  |

| Structure (SMILES) | EC50 (B1-AR) [nM] | Emax (B1-AR) [%] | EC50 (B2-AR; CHO-K1 cells) [nM] | Emax (B2-AR; CHO-K1 cells) [%] | Emax (B2-AR; CHO-K1, CHO-K1 cells) [%] |
| --- | --- | --- | --- | --- | --- |
| CCC(C)(CC)NC[C@H](O)c1cccc2[nH]ncc12 [I-23] | < 10 | > 90 | < 10 | > 90 |  |
| CC[C@H](C)NC[C@H](O)c1cccc2[nH]ncc12 [I-24] | 10 to 100 | > 90 | < 10 | > 90 |  |
| CC(C)C(C)(C)NC[C@H](O)c1cccc2[nH]nc(F)c12 [I-25] | < 10 | > 90 | < 10 | > 90 |  |
| CCC(C)(CC)NC[C@H](O)c1cc(F)cc2[nH]ncc12 [I-26] | < 10 | > 90 | < 10 |  | > 90 |
| CC(C)[C@@H](C)NC[C@H](O)c1cc(F)cc2[nH]ncc12 [I-27] | < 10 | > 90 | < 10 | > 90 |  |
| CCC(C)(CC)NC[C@H](O)c1ccc(F)c2[nH]ncc12 [I-28] | < 10 | > 90 | < 10 |  | > 90 |
| CC(C)C(C)(C)NC[C@H](O)c1cccc2[nH]ncc12 [I-29] | 10 to 100 | > 90 | < 10 |  | > 90 |
| CCC(C)(CC)NC[C@H](O)c1cccc2[nH]nc(F)c12 [I-30] | < 10 | > 90 | < 10 | > 90 |  |
| CC(C)[C@@H](C)NC[C@H](O)c1ccc(F)c2[nH]ncc12 [I-31] | 10 to 100 | 70 to 90 | < 10 |  | > 90 |
| CC(C)C(C)(C)NC[C@H](O)c1cc(F)cc2[nH]ncc12 [I-32] | 10 to 100 | > 90 | < 10 | > 90 |  |
| CC(C)[C@@H](C)NC[C@H](O)c1cccc2[nH]ncc12 [I-33] | < 10 | 70 to 90 | < 10 | > 90 |  |
| CC[C@H](C)NC[C@H](O)c1cc(F)cc2[nH]ncc12 [I-34] | < 10 | > 90 | < 10 | 70 to 90 |  |
| CC[C@H](C)NC[C@H](O)c1cccc2[nH]nc(F)c12 [I-35] | < 10 | 70 to 90 | < 10 | 70 to 90 |  |
| CC(C)[C@H](C)NC[C@H](O)c1ccc(F)c2[nH]ncc12 [I-36] | < 10 | 70 to 90 | < 10 |  | > 90 |
| CCC(CC)NC[C@H](O)c1ccc(F)c2[nH]ncc12 [I-37] | 10 to 100 | 70 to 90 | < 10 |  | 70 to 90 |
| CC(C)[C@@H](C)NC[C@H](O)c1cccc2[nH]nc(F)c12 [I-38] | < 10 | 70 to 90 | < 10 |  | > 90 |
| CC(C)[C@H](C)NC[C@H](O)c1cccc2[nH]ncc12 [I-40] | 10 to 100 | 70 to 90 | < 10 | > 90 |  |
| CC[C@@H](C)NC[C@H](O)c1cc(F)cc2[nH]ncc12 [I-41] | < 10 | > 90 | < 10 | > 90 |  |
| CCC(CC)NC[C@H](O)c1cccc2[nH]nc(F)c12 [I-42] | 10 to 100 | > 90 | < 10 |  | 70 to 90 |
| CCC(CC)NC[C@H](O)c1cccc2[nH]ncc12 [I-43] | 10 to 100 | > 90 | < 10 |  | > 90 |
| CCC(CC)NC[C@H](O)c1cc(F)cc2[nH]ncc12 [I-44] | < 10 | > 90 | < 10 |  | 70 to 90 |
